This passage reports Drug metabolism, Retention_time and Ratio results from ChEMBL document CHEMBL3525915, “Elucidation of a novel bioactivation pathway of a 3,4-unsubstituted isoxazole in human liver microsomes: formation of a glutathione adduct of a cyanoacrolein derivative after isoxazole ring opening” (Drug Metab Dispos, 2011).

Data set [1] relates to Liver microsome. The experiment in a line: Drug metabolism in human liver microsomes assessed as (Z)-3-cyano-2-hydroxy-N-((2-isopropyl-7-methyl-1-oxoisoindolin-5-yl)methyl)acrylamide formation at 20 uM for 1 hr by LC-MS/MS analysis in presence of NADPH. Format: ADME. In general terms: Liver microsomes are a subcellular fraction often used to study metabolism.
Data set [2] deals with Liver microsome. Briefly: Drug metabolism in human liver microsomes assessed as 2-amino-5-(1-(carboxymethylamino)-3-(3-cyano-5-((2-isopropyl-7-methyl-1-oxoisoindolin-5-yl)methylamino)-4,5-dioxopentan-2-ylthio)-1-oxopropan-2-ylamino)-5-oxopentanoic acid formation at 20 uM (drug stock solution contained ethanol) by LC-MS/MS analysis in presence of NADPH. Format: ADME.
The subject of data set [3] is Liver microsome. The experiment in a line: Retention time of the compound in human liver microsomes in presence of NADPH at 37 degC incubated for 1 hr by liquid chromatography. It counts as ADME.
In data set [4] the test system is Liver microsome. The experiment in a line: Drug metabolism in human liver microsomes assessed metabolite formation at 20 uM in absence of NADPH at 37 degC incubated for 1 hr by liquid chromatography. It counts as ADME.
Data set [5] has as its system Liver microsome. The experiment in a line: Drug metabolism in human liver microsomes assessed ratio of sum peak areas of metabolite M1 and M2 to peak area of internal standard at 20 uM in presence of NADPH and 1 mM 1-ABT at 37 degC incubated for 1 hr by liquid chromatography. Format: ADME.
Data set [6] concerns Liver microsome. Briefly: Drug metabolism in human liver microsomes assessed ratio of sum peak areas of metabolite M1 and M2 to peak area of internal standard at 20 uM in presence of NADPH and in absence of 1 mM 1-ABT at 37 degC incubated for 1 hr by liquid chromatography. It counts as ADME.
The subject of data set [7] is Liver microsome. Briefly: Drug metabolism in human liver microsomes assessed as metabolite formation at 20 uM (drug stock solution contained 1% acetonitrile) LC-MS/MS analysis in presence of NADPH and GSH. It counts as ADME.
Data set [8] deals with Liver microsome. Briefly: Drug level in human liver microsomes assessed as compound formation treated with 20 uM N-((2-isopropyl-7-methyl-1-oxoisoindolin-5-yl)methyl)isoxazole-5-carboxamide (drug stock solution contained 1% ethanol) LC-MS/MS analysis in presence of NADPH. Format: ADME.
In data set [9] the test system is Liver microsome. The experiment in a line: Drug level in human liver microsomes assessed as compound formation treated with 20 uM N-((2-isopropyl-7-methyl-1-oxoisoindolin-5-yl)methyl)isoxazole-5-carboxamide (drug stock solution contained 1% acetonitrile) LC-MS/MS analysis in presence of NADPH. Format: ADME.
Data set [10] can be described thus: Drug level in 0.1 N NaOH aqueous solution assessed as compound formation treated with 40 uM N-((2-isopropyl-7-methyl-1-oxoisoindolin-5-yl)methyl)isoxazole-5-carboxamide for 20 mins by LC-MS/MS analysis. The settings on record: buffer. Format: physicochemical.
Data set [11] has as its system Liver microsome. The experiment in a line: Drug level in human liver microsomes assessed as compound formation treated with 20 uM N-((2-isopropyl-7-methyl-1-oxoisoindolin-5-yl)methyl)isoxazole-5-carboxamide for 1 hr by LC-MS/MS analysis in presence of NADPH. It counts as ADME.
For data set [12], the system named is Liver microsome. The experiment in a line: Drug level in human liver microsomes assessed as compound formation treated with 20 uM N-((2-isopropyl-7-methyl-1-oxoisoindolin-5-yl)methyl)isoxazole-5-carboxamide (drug stock solution contained 1% methanol) LC-MS/MS analysis in presence of NADPH and GSH. Format: ADME.
A short description of data set [13]: Drug level in 0.1 N NaOH aqueous solution assessed as compound formation treated with 40 uM N-((2-isopropyl-7-methyl-1-oxoisoindolin-5-yl)methyl)isoxazole-5-carboxamide for 20 mins at pH 7.5 by LC-MS/MS analysis in presence of formaldehyde and GSH. It counts as physicochemical. Particulars: buffer, pH 7.5, 20 min.
Data set [14] relates to Liver microsome. Briefly: Drug level in human liver microsomes assessed as compound formation treated with 20 uM N-((2-isopropyl-7-methyl-1-oxoisoindolin-5-yl)methyl)isoxazole-5-carboxamide (drug stock solution contained 1% acetonitrile) LC-MS/MS analysis in presence of NADPH and GSH. It counts as ADME.
Data set [15] concerns Liver microsome. The experiment in a line: Drug metabolism in human liver microsomes treated with 20 uM N-((2-isopropyl-7-methyl-1-oxoisoindolin-5-yl)methyl)isoxazole-5-carboxamide assessed compound formation in presence of NADPH using [13C]-labeled CH3OH drug stock solution at 37 degC incubated for 1 hr by liquid chromatography. Format: ADME.

As for `Cc1cc(CNC(=O)c2ccno2)cc2c1C(=O)N(C(C)C)C2`, the Drug metabolism result in data set [1] is listed as “metabolite_detected”; in data set [2], “metabolite_detected”; in data set [4] it was “metabolite_not_detected”; in [7], “metabolite_not_detected”. The Retention_time in data set [3] is recorded as 17.06 min. For the same molecule, the Ratio in data set [5] came to 0.128; in data set [6], 1.22.

For `Cc1cc(CNC(=O)C(=O)C(C#N)C(C)SC[C@H](NC(=O)CC[C@H](N)C(=O)O)C(=O)NCC(=O)O)cc2c1C(=O)N(C(C)C)C2` (single isomer, unassigned; diastereomer 1), in data set [3], the Retention_time is reported as 10.82 min.

Turning to `Cc1cc(CNC(=O)C(=O)C(C#N)C(C)SC[C@H](NC(=O)CC[C@H](N)C(=O)O)C(=O)NCC(=O)O)cc2c1C(=O)N(C(C)C)C2` (single isomer, unassigned; diastereomer 2), the Drug metabolism result in data set [8] is “metabolite_detected”; in data set [9] it was “metabolite_not_detected”. Further, in data set [3], the Retention_time came out at 10.08 min.

On to `Cc1cc(CNC(=O)C(=O)CC#N)cc2c1C(=O)N(C(C)C)C2`, for which, in data set [10], the Drug metabolism entry is “metabolite_detected”. Further, in [3], the Retention_time is reported as 12.69 min.

For the molecule `Cc1cc(CNC(=O)/C(O)=C/C#N)cc2c1C(=O)N(C(C)C)C2`, the Drug metabolism entry in data set [11] and in data set [10] was “metabolite_detected” in each case. Besides, in data set [3], the Retention_time is recorded as 13.55 min.

Regarding `Cc1cc(CNC(=O)C(=O)C(C#N)CSC[C@H](NC(=O)CC[C@H](N)C(=O)O)C(=O)NCC(=O)O)cc2c1C(=O)N(C(C)C)C2` (some centres not stated), the Drug metabolism result is “metabolite_detected” in data set [12]; “metabolite_detected” in data set [10]; “metabolite_detected” in [13]; “metabolite_not_detected” in [14]; “metabolite_detected” in data set [15]. Besides, the Retention_time in [3] turned out to be 9.72 min.
